Experimental data from BindingDB's records for doi:10.1111/cbdd.12787 (Shandong University, 2016).

Legend:
Test in all cases: In vitro HDACs Inhibition Fluorescence Assay
[1] = biological target: Histone deacetylase 1 (Homo sapiens, UniProt Q13547)
Method: (§1) Afterincubation at 37 °C for 10 min, 40 μL of fluorogenic substrate (Boc-Lys(Ac)-AMC for HeLa nuclear extracts; Ac-Leu- GlyLyS(Ac)-AMC for HDAC1, HDAC6, and HDAC11; Ac-Leu-GlyLyS(Tfa)-AMC for HDAC4 and HDAC8) was added, and then, the mixture was incubated at 37 °C for 30 min. The mixture was stopped by addition of 100 μL of developer containing trypsin and TSA afterward. Over the next incubation at 37 °C for 20 min, fluorescence intensity was measured using a microplate reader at excitation and emission wavelengths of 390 and 460 nm, respectively.

[2] = biological target: T1, Histone deacetylase 11 (Homo sapiens, UniProt Q96DB2)
T1 sequence (Q96DB2 whole entry): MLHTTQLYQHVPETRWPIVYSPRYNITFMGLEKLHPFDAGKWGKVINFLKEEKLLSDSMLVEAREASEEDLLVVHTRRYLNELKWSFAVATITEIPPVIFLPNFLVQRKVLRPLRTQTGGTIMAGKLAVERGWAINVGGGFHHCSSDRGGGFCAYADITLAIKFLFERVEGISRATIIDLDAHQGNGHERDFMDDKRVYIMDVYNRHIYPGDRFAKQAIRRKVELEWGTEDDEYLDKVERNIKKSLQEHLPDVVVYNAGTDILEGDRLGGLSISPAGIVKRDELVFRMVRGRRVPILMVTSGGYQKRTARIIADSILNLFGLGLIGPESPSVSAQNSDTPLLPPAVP
Method: as §1

[3] = biological target: T2, Histone deacetylase 6 (Homo sapiens, UniProt Q9UBN7)
T2 sequence (Q9UBN7 whole entry): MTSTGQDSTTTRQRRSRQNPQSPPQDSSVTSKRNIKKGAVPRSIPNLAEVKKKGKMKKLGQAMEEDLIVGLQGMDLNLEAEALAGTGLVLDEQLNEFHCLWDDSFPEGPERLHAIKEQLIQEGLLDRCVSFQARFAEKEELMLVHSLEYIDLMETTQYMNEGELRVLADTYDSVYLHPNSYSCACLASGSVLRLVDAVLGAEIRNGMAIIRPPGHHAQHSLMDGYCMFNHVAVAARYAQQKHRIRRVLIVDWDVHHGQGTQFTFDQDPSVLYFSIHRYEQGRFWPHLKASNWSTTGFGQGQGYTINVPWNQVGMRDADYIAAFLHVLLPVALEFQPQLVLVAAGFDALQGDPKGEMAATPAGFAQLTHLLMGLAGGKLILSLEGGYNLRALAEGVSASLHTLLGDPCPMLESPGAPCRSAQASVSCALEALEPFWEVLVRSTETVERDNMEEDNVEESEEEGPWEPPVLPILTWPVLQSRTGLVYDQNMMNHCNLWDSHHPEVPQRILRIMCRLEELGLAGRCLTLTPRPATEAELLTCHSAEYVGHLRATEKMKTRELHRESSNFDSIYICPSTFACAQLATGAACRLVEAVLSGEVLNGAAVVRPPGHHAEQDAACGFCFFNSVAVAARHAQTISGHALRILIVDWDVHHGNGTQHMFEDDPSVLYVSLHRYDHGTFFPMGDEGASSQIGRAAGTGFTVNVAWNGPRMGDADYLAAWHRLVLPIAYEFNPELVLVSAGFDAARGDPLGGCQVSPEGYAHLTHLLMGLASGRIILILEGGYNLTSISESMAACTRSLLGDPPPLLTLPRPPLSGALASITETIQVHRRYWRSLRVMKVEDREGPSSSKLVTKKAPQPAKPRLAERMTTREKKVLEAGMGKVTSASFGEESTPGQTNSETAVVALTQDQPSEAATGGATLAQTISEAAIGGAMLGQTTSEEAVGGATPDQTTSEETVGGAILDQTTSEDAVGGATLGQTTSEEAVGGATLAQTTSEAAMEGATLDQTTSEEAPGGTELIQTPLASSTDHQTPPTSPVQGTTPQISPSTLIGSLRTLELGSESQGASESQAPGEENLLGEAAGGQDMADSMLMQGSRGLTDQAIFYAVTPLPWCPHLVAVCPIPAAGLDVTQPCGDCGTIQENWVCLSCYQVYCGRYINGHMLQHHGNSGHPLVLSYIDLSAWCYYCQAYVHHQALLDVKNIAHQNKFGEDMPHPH
Method: as §1

[4] = biological target: Histone deacetylase 4 (Homo sapiens, UniProt P56524)
Method: as §1

[5] = biological target: T3, Histone deacetylase 8 (Homo sapiens, UniProt Q9BY41)
T3 sequence (Q9BY41 whole entry): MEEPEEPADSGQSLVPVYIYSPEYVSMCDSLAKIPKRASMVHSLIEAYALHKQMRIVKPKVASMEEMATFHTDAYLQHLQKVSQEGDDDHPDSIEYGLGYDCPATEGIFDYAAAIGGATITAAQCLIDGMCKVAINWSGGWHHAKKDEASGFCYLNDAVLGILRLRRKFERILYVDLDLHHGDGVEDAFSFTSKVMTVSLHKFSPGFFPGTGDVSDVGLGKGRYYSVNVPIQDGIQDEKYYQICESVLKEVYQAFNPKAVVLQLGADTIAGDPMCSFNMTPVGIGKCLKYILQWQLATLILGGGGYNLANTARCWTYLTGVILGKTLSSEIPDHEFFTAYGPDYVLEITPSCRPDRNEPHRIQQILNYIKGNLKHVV
Method: as §1

Histone deacetylase 4, sequence (P56524 whole entry): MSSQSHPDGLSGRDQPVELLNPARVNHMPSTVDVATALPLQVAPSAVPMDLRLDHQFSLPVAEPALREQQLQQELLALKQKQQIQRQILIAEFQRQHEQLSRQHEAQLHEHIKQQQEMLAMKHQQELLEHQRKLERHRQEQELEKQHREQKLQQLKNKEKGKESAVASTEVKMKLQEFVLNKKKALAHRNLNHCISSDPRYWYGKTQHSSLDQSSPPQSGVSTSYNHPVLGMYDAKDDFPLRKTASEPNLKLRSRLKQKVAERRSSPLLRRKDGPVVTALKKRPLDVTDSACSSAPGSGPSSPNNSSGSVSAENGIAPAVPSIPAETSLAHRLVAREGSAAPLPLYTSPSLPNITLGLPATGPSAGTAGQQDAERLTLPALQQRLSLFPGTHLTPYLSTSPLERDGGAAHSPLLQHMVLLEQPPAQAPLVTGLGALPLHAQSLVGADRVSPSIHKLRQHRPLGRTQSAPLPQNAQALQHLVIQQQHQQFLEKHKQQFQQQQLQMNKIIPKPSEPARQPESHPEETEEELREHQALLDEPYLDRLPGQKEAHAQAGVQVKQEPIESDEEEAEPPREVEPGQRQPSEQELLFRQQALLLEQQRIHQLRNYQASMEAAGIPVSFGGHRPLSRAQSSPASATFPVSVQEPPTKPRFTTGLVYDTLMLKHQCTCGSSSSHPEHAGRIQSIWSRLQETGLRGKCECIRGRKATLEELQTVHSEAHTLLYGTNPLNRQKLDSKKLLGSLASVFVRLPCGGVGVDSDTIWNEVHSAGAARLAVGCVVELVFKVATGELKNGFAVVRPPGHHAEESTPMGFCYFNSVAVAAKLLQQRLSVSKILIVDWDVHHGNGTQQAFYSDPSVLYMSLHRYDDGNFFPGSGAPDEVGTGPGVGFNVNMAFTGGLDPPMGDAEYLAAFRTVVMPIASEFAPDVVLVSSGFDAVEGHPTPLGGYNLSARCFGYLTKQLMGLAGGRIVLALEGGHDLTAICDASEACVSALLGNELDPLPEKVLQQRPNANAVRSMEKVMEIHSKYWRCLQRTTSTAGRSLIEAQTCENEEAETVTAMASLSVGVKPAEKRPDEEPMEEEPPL
Histone deacetylase 1, sequence (Q13547 whole entry): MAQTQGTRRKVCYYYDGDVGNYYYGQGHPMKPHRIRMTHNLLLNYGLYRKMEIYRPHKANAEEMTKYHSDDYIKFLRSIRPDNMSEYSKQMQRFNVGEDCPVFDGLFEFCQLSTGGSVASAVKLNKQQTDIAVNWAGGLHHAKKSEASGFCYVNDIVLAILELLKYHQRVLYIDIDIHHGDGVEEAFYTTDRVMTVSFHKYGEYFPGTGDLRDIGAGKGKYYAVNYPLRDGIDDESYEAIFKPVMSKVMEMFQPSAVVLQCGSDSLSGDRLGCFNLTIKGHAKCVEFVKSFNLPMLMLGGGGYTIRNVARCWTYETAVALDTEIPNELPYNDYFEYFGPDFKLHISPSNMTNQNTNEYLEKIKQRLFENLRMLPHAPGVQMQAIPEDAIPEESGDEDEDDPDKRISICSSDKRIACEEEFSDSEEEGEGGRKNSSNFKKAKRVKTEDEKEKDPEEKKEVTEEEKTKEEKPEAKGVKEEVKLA

IC50 [1] [µM] | IC50 [2] [µM] | IC50 [3] [µM] | IC50 [4] [µM] | IC50 [5] [µM] | SMILES
0.093 | 3.85 | 0.08 | 23 | 0.659 | O=C(/C=C/c1cccc(S(=O)(=O)N[C@H](C(=O)Nc2cccc3ccccc23)c2ccccc2)c1)NO [(S,E)-N-hydroxy-3-(3-(N-(2-(naphthalen-1-ylamino)-2-oxo-1-phenylethyl)sulfamoyl)phenyl)acrylamide (10s)]
– | – | – | 9.85 | – | O=C(/C=C/c1cccc(S(=O)(=O)Nc2ccccc2)c1)NO [Belinostat]
